Where two headings read alike, the source gives them in different places.
What was measured:
[1] = system: morphine; assay: animal or person; format: in vivo, rats
[2] = system: apomorphine; assay: Apomorphine antagonism test; format: in vivo, mice; settings: Mus musculus, sc, read-out: ED50, Apomorphine Antagonism
Method: (§1) The pharmacological investigations were conducted on mice weighing 20-22 g. or on rats weighing 80-110 g. Unless indicated otherwise, the test substances were administered in the form of the hydrochloride acid addition salt thereof in an isotonic NaCl solution, and the animals were examined 30 minutes after subcutaneous (sc) application. The injection volume was respectively 5 ml./kg. of body weight. 10-40 controls animals were used in each experiment. The test and control solutions were administered in accordance with a randomized injection schedule. Seven logarithmically spaced dosages were employed of each test substance. The effective dose (ED) was calculated by probit analysis (Finney, D. J., "Probit Analysis," Cambridge University Press, 2nd Edition, Cambridge 1957). ED50 figures were rounded.
The criterion for antagonistic effect was the absence of stereotyped movements within an observation period of one minute.

[3] = system: morphine; set-up: species or system mice; settings: mouse, in vivo
[4] = system: phenylquinone; assay: Writhing test, acute (phenylquinone writhing, analgesic activity); format: in vivo; settings: Mus musculus, mice, acute, phenylquinone 2 mg/kg i.p., hydrochloride
Method: as §1
(§2) In the acute test, the test compounds were administered perorally (p.o.) or subcutaneously (s.c.) to mice. Eight mice were used per dose. Seven minutes prior to the testing, the animals received 2 mg./kg. of phenylquinone intraperitoneally. […] The criterion for protective effect was absence of writhes during the eighth minute after phenylquinone administration.

[5] = system: naloxone; assay: Naloxone challenge after subchronic administration of test compound (physical dependency); settings: mice; naloxone in doses of up to 100 mg/kg; same schedule and total dosage as for acute morphine dependency
[6] = system: phenylquinone; settings: mice; after subchronic administration of equal total doses
Method: as §1, §2
In the subchronic test, the same test was performed 25 hours after the last injection of a 64-hour pretreatment period, with the test compound being administered subcutaneously. During the pretreatment period, the subjects received a total of 550 mg/kg. of the test compound, with the test compound being injected over a period of 22 hours in 4 increasing dosages in salt form, and over an additional 42 hours in 2 identical dosages in free base form in sesame oil.

[7] = system: morphine; assay: Precipitated Withdrawal Jumping Test (morphine antagonism in morphine-dependent mice); format: in vivo; settings: morphine-dependent mice
Method: as §1
The test compound was given to dose groups of 8 animals. The antagonist-precipitated withdrawal jumping frequencies were recorded during three 5-minute observation intervals uniformly distributed over 30 minutes after administration of the test compound. […] The criterion for a precipitating effect is a mean jumping frequency of >1/minute.

[8] = system: electroshock; assay: Maximal electroshock test; format: in vivo; settings: Mus musculus, sc, 0.5 h; mice; 16 mA/50 c.p.s., 0.2 second, transcorneal; absence of tonic extensor cramp of hind limbs, 30 min
Method: 10-40 controls animals were used in each experiment. […] ED50 figures were rounded.
In the maximum electroshock test, the test substances were administered to dose groups of 6 mice. Sinusoidal pulses of 16 milliamperes/50 c.p.s. [Hertz] and 0.2 second duration were delivered transcorneally via silver electrodes. The shock intensity used elicits nonlethal tonic-clonic convulsions in control animals (p <0.01, N = 192). The criterion for protective effect was the absence of the tonic extensor cramp of the hind limbs after shock application (modified test according to Swinyard et al., J. Pharmacol. Exp. Ther. 106, 319, 1952).

CC(C)=CCN1CCC2(C)c3cc(O)ccc3CC1C2C (centres unmarked) [Pentazocine, reference compound]
ED50 ([1]; Rattus norvegicus, sc, read-out: ED50, Morphine Antagonism-Tail-Flick Test, Rats): 40 mg/kg
morphine-antagonistic activity, tail-flick test (in words), rats ([1]; rat, in vivo): weaker activity, especially in rats
ED50 [2]: 40 mg/kg
morphine-antagonistic activity, tail-flick test (in words), mice [3]: weaker activity
ED50, Morphine Antagonism-Tail-Flick Test, Mice ([3]; sc, 12.5 mg/kg): 5 mg/kg
ED50 ([4]; po, 10 min, p.o., 10 min p.i., ED50 rounded, read-out: ED50, writhing test, acute p.o., 10 min. p.i.): 50 mg/kg
ED50 ([4]; po, 0.5 h, p.o., 30 min p.i., ED50 rounded, read-out: ED50, writhing test, acute p.o., 30 min. p.i.): 70 mg/kg
ED50 ([4]; sc, 10 min, s.c., 10 min p.i., ED50 rounded, read-out: ED50, writhing test, acute s.c., 10 min. p.i.): 3 mg/kg
ED50 ([4]; sc, 0.5 h, s.c., 30 min p.i., * = significant difference between acute and subchronic ED50 (p < 0.001), read-out: ED50, writhing test, acute s.c., 30 min. p.i.): 3 mg/kg
withdrawal jumping precipitated by naloxone after subchronic administration (morphine-like physical dependency) [5]: no withdrawal jumping is precipitated
tolerance development [6]: do not exhibit tolerance development
precipitated withdrawal effect (in words) [7]: completely inactive
ED50, Precipitated Withdrawal Jumping Test (inactive, footnote 3) ([7]; tested at 0.78 - 50 mg/kg): Inactive
ED50 [8]: 17 mg/kg

Source: patent US4020164A, “Benzomorphan derivatives” (priority 1972, dated 1977)
